Source: patent US20250098679A1, “HERBICIDAL PYRIDONE DERIVATIVES” (SYNGENTA CROP PROTECTION AG, priority 2021, published 2025)

Columns and labels:
Format in all cases: in vivo
Conditions in all cases: evaluated after 13 days
[1] = tested on: Zea mays (ZEAMX); test: Post-emergence Test, Zea mays (ZEAMX); parameters: key to percentage damage caused to the plant, ZEAMX (five-point scale): 5=81-100%, 4=61-80%, 3=41-60%, 2=21-40%, 1=0-20% damage
In short: (§1)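 Sown pots in a glasshouse (24/16 °C day/night, 14 h light, 65% humidity) were sprayed with compound in acetone/water (50:50) with 0.5% Tween 20, at 1000 g/ha unless otherwise stated. Damage was assessed 13 days after spraying and scored 1–5 (5=81-100%, 1=0-20%).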

[2] = tested on: Zea mays (ZEAMX); test: Pre-emergence Test, Zea mays (ZEAMX)
[3] = tested on: Setaria faberi (SETFA); test: Post-emergence Test, Setaria faberi (SETFA); parameters: key to percentage damage caused to the plant, SETFA (five-point scale): 5=81-100%, 4=61-80%, 3=41-60%, 2=21-40%, 1=0-20% damage
In short: as §1

[4] = tested on: Echinochloa crus-galli (ECHCG); test: Pre-emergence Test, Echinochloa crus-galli (ECHCG)
[5] = tested on: Amaranthus retoflexus (AMARE); test: Pre-emergence Test, Amaranthus retoflexus (AMARE)
[6] = tested on: Amaranthus palmeri (AMAPA); test: Post-emergence Test, Amaranthus palmeri (AMAPA); parameters: key: 5=81-100%, 4=61-80%, 3=41-60%, 2=21-40%, 1=0-20% damage
In short: as §1

[7] = tested on: Amaranthus palmeri (AMAPA); test: Pre-emergence Test, Amaranthus palmeri (AMAPA)
[8] = tested on: Ipomoea hederacea (IPOHE); test: Pre-emergence Test, Ipomoea hederacea (IPOHE)
[9] = tested on: Ipomoea hederacea (IPOHE); test: Post-emergence Test, Ipomoea hederacea (IPOHE); parameters: key to percentage damage caused to the plant, IPOHE (five-point scale): 5=81-100%, 4=61-80%, 3=41-60%, 2=21-40%, 1=0-20% damage
In short: as §1

[10] = tested on: Amaranthus retoflexus (AMARE); test: Post-emergence Test, Amaranthus retoflexus (AMARE); parameters: key to percentage damage caused to the plant, AMARE (five-point scale): 5=81-100%, 4=61-80%, 3=41-60%, 2=21-40%, 1=0-20% damage
In short: as §1

[11] = tested on: Echinochloa crus-galli (ECHCG); test: Post-emergence Test, Echinochloa crus-galli (ECHCG); parameters: key to percentage damage caused to the plant, ECHCG (five-point scale): 5=81-100%, 4=61-80%, 3=41-60%, 2=21-40%, 1=0-20% damage
In short: as §1

[12] = tested on: Setaria faberi (SETFA); test: Pre-emergence Test, Setaria faberi (SETFA)

| Structure (SMILES) | percentage damage caused to the plant, ZEAMX (five-point scale) ([1]; 250 g/Ha) | percentage damage caused to the plant, ZEAMX (five-point scale) ([1]; 1000 g/ha) | Pre-emergence Test ZEAMX, percentage damage caused to the plant (five-point scale) ([2]; 1000 g/ha) | percentage damage caused to the plant, SETFA (five-point scale) ([3]; 250 g/Ha) | percentage damage caused to the plant, SETFA (five-point scale) ([3]; 1000 g/ha) | Pre-emergence Test ECHCG, percentage damage caused to the plant (five-point scale) ([4]; 1000 g/ha) | Pre-emergence Test AMARE, percentage damage caused to the plant (five-point scale) ([5]; 1000 g/ha) | percentage damage caused to the plant, AMAPA (five-point scale) ([6]; 250 g/Ha) | percentage damage caused to the plant, AMAPA (five-point scale) ([6]; 1000 g/ha) | Pre-emergence Test AMAPA, percentage damage caused to the plant (five-point scale) ([7]; 1000 g/ha) | Pre-emergence Test IPOHE, percentage damage caused to the plant (five-point scale) ([8]; 1000 g/ha) | percentage damage caused to the plant, IPOHE (five-point scale) ([9]; 250 g/Ha) | percentage damage caused to the plant, IPOHE (five-point scale) ([9]; 1000 g/ha) | percentage damage caused to the plant, AMARE (five-point scale) ([10]; 250 g/Ha) | percentage damage caused to the plant, AMARE (five-point scale) ([10]; 1000 g/ha) | percentage damage caused to the plant, ECHCG (five-point scale) ([11]; 250 g/Ha) | percentage damage caused to the plant, ECHCG (five-point scale) ([11]; 1000 g/ha) | Pre-emergence Test SETFA, percentage damage caused to the plant (five-point scale) ([12]; 1000 g/ha) | Pre-emergence Test ZEAMX, percentage damage caused to the plant (five-point scale) ([2]; 250 g/Ha (*)) | Pre-emergence Test ECHCG, percentage damage caused to the plant (five-point scale) ([4]; 250 g/Ha (*)) | further results |
| --- | --- | --- | --- | --- | --- | --- | --- | --- | --- | --- | --- | --- | --- | --- | --- | --- | --- | --- | --- | --- | --- |
| CCn1c(Cn2ccc(C(F)(F)F)n2)cc(=O)c(C(=O)O)c1-c1ccc(Cl)c(C#N)c1 [Compound 128, 2-(4-chloro-3-cyano-phenyl)-1-ethyl-4-oxo-6-[[3-(trifluoromethyl)pyrazol-1-yl]methyl]pyridine-3-carboxylic acid] | 0 | 1 (1=0-20%) | 0 | 0 | 3 (3=41-60%) | 1 (1=0-20%) | 1 (1=0-20%) | 0 | 1 (1=0-20%) | 1 (1=0-20%) | 1 (1=0-20%) | 1 (1=0-20%) | 1 (1=0-20%) | 0 | 1 (1=0-20%) | 1 (1=0-20%) | 4 (4=61-80%) | 3 (3=41-60%) |  |  |  |
| CCn1c(Cn2ccc(Cl)n2)cc(=O)c(C(=O)O)c1-c1ccc(S(C)(=O)=O)c(Cl)c1 [Compound 130, 2-(3-chloro-4-methylsulfonyl-phenyl)-6-[(3-chloropyrazol-1-yl)methyl]-1-ethyl-4-oxo-pyridine-3-carboxylic acid] |  | 0 | 0 |  | 1 (1=0-20%) | 0 | 1 (1=0-20%) |  | 2 (2=21-40%) | 1 (1=0-20%) | 0 |  | 1 (1=0-20%) |  | 1 (1=0-20%) |  | 0 | 0 |  |  |  |
| CCn1c(Cn2ccc(C(F)(F)F)n2)c(-c2ccc(Cl)cc2)c(=O)c(C(=O)O)c1-c1ccc(Cl)c(Cl)c1 [Compound 21, 5-(4-chlorophenyl)-2-(3,4-dichlorophenyl)-1-ethyl-4-oxo-6-[[3-(trifluoromethyl)pyrazol-1-yl]methyl]pyridine-3-carboxylic acid] |  | 1 (1=0-20%) |  |  | 0 |  |  |  | 2 (2=21-40%) |  |  |  | 3 (3=41-60%) |  | 1 (1=0-20%) |  | 0 |  | 0 | 0 | Pre-emergence Test AMARE, percentage damage caused to the plant (five-point scale) ([5]; 250 g/Ha (*)): 0; Pre-emergence Test AMAPA, percentage damage caused to the plant (five-point scale) ([7]; 250 g/Ha (*)): 0; Pre-emergence Test IPOHE, percentage damage caused to the plant (five-point scale) ([8]; 250 g/Ha (*)): 1 (1=0-20%); Pre-emergence Test SETFA, percentage damage caused to the plant (five-point scale) ([12]; 250 g/Ha (*)): 0 |
| CCn1c(Cn2nc(Cl)cc2C(F)(F)F)cc(=O)c(C(=O)O)c1-c1ccc(Cl)c(Cl)c1 [Compound 104, 6-[[3-chloro-5-(trifluoromethyl)pyrazol-1-yl]methyl]-2-(3,4-dichlorophenyl)-1-ethyl-4-oxo-pyridine-3-carboxylic acid] | 4 (4=61-80%) | 4 (4=61-80%) | 5 (5=81-100%) | 4 (4=61-80%) | 4 (4=61-80%) | 5 (5=81-100%) | 1 (1=0-20%) | 3 (3=41-60%) | 4 (4=61-80%) | 1 (1=0-20%) | 4 (4=61-80%) | 4 (4=61-80%) | 3 (3=41-60%) | 3 (3=41-60%) | 4 (4=61-80%) | 4 (4=61-80%) | 4 (4=61-80%) | 5 (5=81-100%) | 2 (2=21-40%) | 5 (5=81-100%) | Pre-emergence Test AMARE, percentage damage caused to the plant (five-point scale) ([5]; 250 g/Ha (*)): 1 (1=0-20%); Pre-emergence Test AMAPA, percentage damage caused to the plant (five-point scale) ([7]; 250 g/Ha (*)): 1 (1=0-20%); Pre-emergence Test IPOHE, percentage damage caused to the plant (five-point scale) ([8]; 250 g/Ha (*)): 1 (1=0-20%); Pre-emergence Test SETFA, percentage damage caused to the plant (five-point scale) ([12]; 250 g/Ha (*)): 5 (5=81-100%) |
| CCn1c(Cn2ncc3cc(Cl)ccc32)cc(=O)c(C(=O)O)c1-c1ccc(Cl)c(Cl)c1 [Compound 98, 6-[(5-chloroindazol-1-yl)methyl]-2-(3,4-dichlorophenyl)-1-ethyl-4-oxo-pyridine-3-carboxylic acid] | 1 (1=0-20%) |  |  | 1 (1=0-20%) |  |  |  | 0 |  |  |  | 1 (1=0-20%) |  | 1 (1=0-20%) |  | 2 (2=21-40%) |  |  | 0 | 0 | Pre-emergence Test AMARE, percentage damage caused to the plant (five-point scale) ([5]; 250 g/Ha (*)): 0; Pre-emergence Test AMAPA, percentage damage caused to the plant (five-point scale) ([7]; 250 g/Ha (*)): 1 (1=0-20%); Pre-emergence Test IPOHE, percentage damage caused to the plant (five-point scale) ([8]; 250 g/Ha (*)): 0; Pre-emergence Test SETFA, percentage damage caused to the plant (five-point scale) ([12]; 250 g/Ha (*)): 0 |
| CCn1c(Cn2cc(Cl)c(C3CC3)n2)cc(=O)c(C(=O)O)c1-c1ccc(Cl)c(Cl)c1 [Compound 94, 6-[(4-chloro-3-cyclopropyl-pyrazol-1-yl)methyl]-2-(3,4-dichlorophenyl)-1-ethyl-4-oxo-pyridine-3-carboxylic acid] | 0 | 0 | 0 | 0 | 4 (4=61-80%) | 2 (2=21-40%) | 1 (1=0-20%) | 2 (2=21-40%) | 3 (3=41-60%) | 2 (2=21-40%) | 1 (1=0-20%) | 0 | 3 (3=41-60%) | 3 (3=41-60%) | 3 (3=41-60%) | 4 (4=61-80%) | 1 (1=0-20%) | 1 (1=0-20%) | 0 | 2 (2=21-40%) | Pre-emergence Test AMARE, percentage damage caused to the plant (five-point scale) ([5]; 250 g/Ha (*)): 0; Pre-emergence Test AMAPA, percentage damage caused to the plant (five-point scale) ([7]; 250 g/Ha (*)): 1 (1=0-20%); Pre-emergence Test IPOHE, percentage damage caused to the plant (five-point scale) ([8]; 250 g/Ha (*)): 0; Pre-emergence Test SETFA, percentage damage caused to the plant (five-point scale) ([12]; 250 g/Ha (*)): 1 (1=0-20%) |
